In patent publication US11993640B2, “Treating inflammatory lung disease” (United States Government as represented by the Department …, priority 2019, dated 2024):
Non-standard residues stand in square brackets, D forms with d. Residues, ends and D or L forms follow the SMILES beside them. *: point of attachment. Phe(F5) = N[C@@H](Cc1c(F)c(F)c(F)c(F)c1F)C(=O)O; hArg = N=C(N)NCCCC[C@H](N)C(=O)O; 12Ado = NCCCCCCCCCCCC(=O)O; Nle = CCCC[C@H](N)C(=O)O; Orn = NCCC[C@H](N)C(=O)O; Abu = CC[C@H](N)C(=O)O; PhAc = O=C(Cc1ccccc1)*

Experiments:
OVCAR-3 cells = assay: In vitro cell viability, ovarian cancer OVCAR-3; format: cell-based, human; conditions: * at concentration of 2 μM for 72 h; Table 3B
Experimental: The inhibitory effects of the various synthesized GHRH antagonists were tested in cell proliferation assays in various human cancer cell lines including stomach cancer (KATOIII, N87), colon cancer (HT-29), urothelial cancer (J82, RT4), pancreatic cancer (PANC-1, CFPAC-1), prostatic cancer (PC3), breast cancer (MX-1, HCC1806), ovarian cancer (SK-OV-3, OVCAR-3) and lung cancer (HCC827, H460).
Cell culture. Human cancer cell lines including pancreatic (PANC-1 and CFPAC-1), lung (HCC827 and H460), stomach (NCI-N87 and KATOIII), urothelial (J82, RT4), prostatic (PC3), breast (MX-1 and HCC 1806), colorectal (HT-29), and ovarian (SK-OV-3 and OVCAR-3) were obtained from the American Type Culture Collection (ATCC) and cultured at 37° C. in a humidified 95% air/5% CO2 atmosphere in the medium recommended by ATCC.
In vitro cell viability. Cell viability was analyzed as follows: cancer cells including pancreatic (PANC-1 and CFPAC-1), lung (HCC827 and H460), stomach (NCI-N87 and KATOIII), urothelial (J82, RT4), prostatic (PC3) and breast (MX-1 and HCC 1806), colorectal (HT-29) and ovarian (SK-OV-3 and OVCAR-3) were grown on 96 well plates to ˜60% confluence, the cells were starved for 24 h in culture medium containing 0.5% FBS. […] Cell viability was measured using CellTiter 96 aqueous one solution kit (Promega). […]

[1] = tested on: C57Bl/6J mice treated with bleomycin; assay: Bleomycin lung injury model, lung hydroxyproline assay; format: in vivo, mouse
Experimental: Experimental animals. 8-week old C57Bl/6J male mice (The Jackson Laboratory, Bar Harbor, ME) were used in these experiments. Mice weighed about 26 grams at the start. Mice were randomly allocated to the experimental groups and housed in identical filter top cages in a ventilated rack. Mice were exposed to a 12-hour light/dark cycle and had free access to standard laboratory chow and water.
Bleomycin and GHRH-R antagonist treatment. Mice were treated with 0.8 units of bleomycin (Bleomycin for Injection USP, Hospira, Lake Forest, IL) intraperitoneally (IP) on days 1, 3, 7, 10, 14 and 21 (Collins S, Chan-Li Y, Oh M, Vigeland C, Limjunyawong N, Mitzner W, Powell J D, Horton M R (2016). JCI Insight 1(4):1-13). Mice (randomly assigned) were simultaneously treated subcutaneously (sc) with MIA-602 (5 μg/day) or its vehicle (100 μL/day). MIA-602 was dissolved in DMSO (ACS grade; Sigma-Aldrich) and diluted 1:500 in normal saline for daily sc injection on days 0-21.
Tissue preparations. Mice were killed by CO2 inhalation before any treatment, or on days 14 or 28 for micro-CT scans of lungs and harvesting of lung tissue (Vande Velde G, Poelmans J, De Langhe E, Hillen A, Vanoirbeek J, Himmelreich U, Lories R (2016). Dis Model Mech 9:91). […]
Hydroxyproline assay. […] Hydroxyproline was measured colorimetrically (560 nm) after hydrolysis using an assay kit (MAK008, Sigma-Aldrich, St. Louis, MO). […]

Structure (SMILES): CCCC[C@H](NC(=O)[C@@H](NC(=O)[C@H](CC(=O)O)NC(=O)[C@H](CCC(N)=O)NC(=O)[C@H](CC(C)C)NC(=O)[C@H](CC(C)C)NC(=O)[C@H](CCCN)NC(=O)[C@H](Cc1c[nH]cn1)NC(=O)[C@H](C)NC(=O)[C@H](CO)NC(=O)[C@H](CC(C)C)NC(=O)[C@H](CCC(N)=O)NC(=O)[C@H](CC)NC(=O)[C@H](CC(C)C)NC(=O)[C@@H](NC(=O)[C@H](CCCN)NC(=O)[C@H](Cc1c[nH]cn1)NC(=O)[C@H](Cc1ccc(OC)cc1)NC(=O)[C@H](CCCCNC(=N)N)NC(=O)[C@H](C)NC(=O)[C@@H](NC(=O)[C@H](Cc1c(F)c(F)c(F)c(F)c1F)NC(=O)[C@@H](NC(=O)[C@H](C)NC(=O)[C@H](CC(=O)O)NC(=O)[C@@H](CCCNC(=N)N)NC(=O)[C@H](Cc1ccc(O)cc1)NC(=O)CCCCCCCCCCCNC(=O)Cc1ccccc1)[C@@H](C)CC)[C@@H](C)O)C(C)C)[C@@H](C)CC)C(=O)N[C@H](CCCNC(=N)N)C(=O)N[C@@H](CCCCNC(=N)N)C(N)=O [MIA-602, PhAC-Ada, Tyr D-Arg, Asp, Ala, Ile, 5FPhe, Thr, Ala, Har, Tyr(Me), His, Orn, Val, Leu, Abu, Gin, Leu, Ser, Ala, His, Orn, Leu, Leu, Gin, Asp, Ile, Nle, D-Arg, Har NH2, reference compound] ({PhAc-12Ado}-Y[dR]DAI[Phe(F5)]TA[hArg]Y(Me)H[Orn]VL[Abu]QLSAH[Orn]LLQDI[Nle][dR][hArg]-NH2)
- In vitro relative inhibitory potency in comparison to MIA-602, OVCAR-3 (OVCAR-3 cells): 1
- Lung hydroxyproline (HP) content ([1]; day 14, MIA-602 5 μg/day sc, bleomycin IP): did not increase significantly
- Lung hydroxyproline (HP) content ([1]; day 28, MIA-602 5 μg/day sc days 1-21, bleomycin IP, compared to naive): No significant increase in HP content
